Test results reported in paper PMC10348910, “Epigenetic reprogramming of cell cycle genes by ACK1 promotes breast cancer resistance to CDK4/6 inhibitor” (Oncogene, 2023).

How the values were obtained:
[1] = tested on: MDA-MB-231 lung metastasis; test: tail vein assay of cancer metastasis; format: in vivo, female SCID mice; conditions: 24 mg/Kg, 5 days a week
Method: To validate the functional significance in vivo, we performed the tail vein assay of cancer metastasis. Briefly, MDA-MB-231 cells were injected in tail veins of female SCID mice and were treated with vehicle or 24 mg/Kg (R)-9b either subcutaneously or orally, for 5 days a week. The mice were euthanized and the lungs were harvested, preserved in 10% neutral buffered formalin, followed by H&E staining. Sections were examined by pathologist (C.W), and scored for metastatic nodules/deposits in 12 × 10 mm area of lung tissue.
MDA-MB-231 cells (2 × 10^5 in PBS), were injected intravenously in the lateral tail vein of female SCID mice. After 10 days, the mice were randomly chosen for treatment with either vehicle, (R)-9b (36 mg/Kg body weight) orally or subcutaneously (s.c.) (24 mg/Kg body weight) for 5 days a week, for 2 weeks. The mice were sacrificed and the lungs were harvested and fixed in 10% neutral buffered formalin. The number of metastatic foci per lung were scored in a blinded fashion by a pathologist (C.W.).

CXCR4 mRNA = test: qRT-PCR of CXCR4 in MDA-MB-231 cells; format: cell-based
Method: (§1) Fig. 7 ACK1 inhibitor overcomes palbociclib-resistant breast cancer growth and metastasis. A 3 × 10^6 MDA-MB-468 cells were injected in the 4th inguinal mammary fat pad of female SCID mice. Once the tumors were palpable, the mice were treated with either vehicle (Captisol; n = 7), Palbociclib at 80 mg/kg (n = 6), or (R)-9b at 36 mg/Kg (n = 6) orally. In addition, mice were injected with (R)-9b at 24 mg/Kg (n = 7) subcutaneously. Mice were treated five times a week, for 22 days. B, C The tumors were harvested and photographed, and the weights were recorded. D Vehicle or (R)-9b treated breast cancer cells were subjected to ChIP using pY88-H4 antibody, followed by qPCR for CXCR4 gene. E CXCR4 mRNA transcript levels in vehicle or (R)-9b treated MDA-MB-231 cells. 18S rRNA was used as housekeeping gene. F MDA-MB-231 cells were transfected with ACK1 or scrambled siRNA, followed by qRT-PCR to determine CXCR4 mRNA transcript levels. […] H Graphical quantitation of lung metastatic deposit. […] The metastases were assessed using IVIS. […] For (A, C–F, I), p values were calculated using unpaired two-tailed Student’s t test.
Real-time quantitative PCR analyses were performed using the ABI PRISM 7900HT Sequence Detection System (Applied Biosystems) as described earlier. […] Data were analyzed using SDS software version 2.2.2 and exported into an Excel spreadsheet. […]

[2] = tested on: pY88-H4 marks in CXCR4 promoter region; test: ChIP-qPCR with pY88-H4 antibody for CXCR4 gene; format: cell-based; conditions: breast cancer cells
Method: as §1, with “gene.” for “gene. E CXCR4 mRNA transcript levels in vehicle or (R)-9b treated MDA-MB-231 cells. 18S rRNA was used as housekeeping gene. F MDA-MB-231 cells were transfected with ACK1 or scrambled siRNA, followed by qRT-PCR to determine CXCR4 mRNA transcript levels.”
Cell pellets were resuspended in RLB buffer and sonicated and the soluble chromatin was incubated with antibodies and Protein-G/A magnetic beads. […] The size and quality of the library was evaluated using the Agilent BioAnalyzer (Agilent Technologies, Inc., Santa Clara, CA), and the library was quantitated with the Kapa Library Quantification Kit. Each enriched DNA library was then sequenced on an Illumina NextSeq 500 sequencer to generate 40–50 million 75-base paired-end reads (Illumina, Inc., San Diego, CA). […]

MDA-MB-468 xenografts = test: MDA-MB-468 xenograft in mammary fat pad; format: in vivo, female SCID mice
Method: To validate these findings in breast tumors, MDA-MB-468 cells were injected in female SCID mice. Once palpable tumors were formed (5 weeks), mice were treated with vehicle (6% captisol), palbociclib (80 mg/Kg of body weight), (R)-9b (36 mg/Kg of body weight) by oral route, or (R)-9b (24 mg/Kg of body weight) by subcutaneous injection, five times a week.
Fig. 7 ACK1 inhibitor overcomes palbociclib-resistant breast cancer growth and metastasis. A 3 × 10^6 MDA-MB-468 cells were injected in the 4th inguinal mammary fat pad of female SCID mice. Once the tumors were palpable, the mice were treated with either vehicle (Captisol; n = 7), Palbociclib at 80 mg/kg (n = 6), or (R)-9b at 36 mg/Kg (n = 6) orally. In addition, mice were injected with (R)-9b at 24 mg/Kg (n = 7) subcutaneously. Mice were treated five times a week, for 22 days. B, C The tumors were harvested and photographed, and the weights were recorded. D Vehicle or (R)-9b treated breast cancer cells were subjected to ChIP using pY88-H4 antibody, followed by qPCR for CXCR4 gene. E CXCR4 mRNA transcript levels in vehicle or (R)-9b treated MDA-MB-231 cells. 18S rRNA was used as housekeeping gene. F MDA-MB-231 cells were transfected with ACK1 or scrambled siRNA, followed by qRT-PCR to determine CXCR4 mRNA transcript levels. G Representative lung metastatic deposits of MDA-MB-231 cells injected via the tail veins in female SCID mice, treated with either vehicle or 24 mg/Kg (R)-9b orally. H Graphical quantitation of lung metastatic deposit. I and J 5 × 10^5 luciferase expressing 4T1 cells were injected into 4th inguinal mammary fat pad of female BALB/c mice. Once the tumors were palpable, mice were treated with either vehicle or (R)-9b at 24 mg/Kg (n = 3, each) subcutaneously for 2 weeks, five times a week. The metastases were assessed using IVIS. Data are represented as the mean ± SEM. *p < 0.05; **p < 0.01; ***p < 0.001. For (A, C–F, I), p values were calculated using unpaired two-tailed Student’s t test.
All animal experiments were performed using the standards for humane care in accordance with the NIH Guide for the Care and Use of Laboratory Animals. Mice were obtained from Charles River Laboratories and experiments were performed according to IACUC protocols (IACUC # 20180259) approved in writing by Washington University in St. Louis Department of Comparative Medicine (DCM). 1.5 × 10^6 Cal-148 or MCF7, or 3 × 10^6 MDA-MB-468 cells were suspended in 200 µl of PBS with 50% matrigel (BD Biosciences) and were implanted subcutaneously into the mammary fat pad (between fourth and fifth inguinal) of female SCID C.B17 mice (n = 8 per group). Once the tumors were palpable (about 4–5 weeks), mice were randomly chosen for subcutaneous injection (Cal-148 and MCF7; 24 mg/Kg body weight) or given oral gavage with (R)-9b (MCF7; 36 mg/Kg body weight) resuspended in 6% Captisol (or 6% Captisol in PBS as vehicle), five times a week, for 4–5 weeks. Tumor volumes were measured twice a week using calipers. At the end of the study, all mice were humanely euthanized, tumors extracted and weighed.

Q: For `CN1CCN(c2ccc(Nc3ncc(Cl)c(NC[C@H]4CCCO4)n3)cc2)CC1` [(R)-9b], which lung metastatic deposits ([1]; (R)-9b oral) is on record?
A: 2 deposits

Q: What about the lung metastatic deposits ([1]; (R)-9b subcutaneous) of the same molecule?
A: no deposits

Q: What about the CXCR4 transcription (CXCR4 mRNA) of the same molecule?
A: inhibited CXCR4 transcription

Q: What about the “pY88-H4 epigenetic marks in CXCR4 promoter region” value [2] of the same molecule?
A: erased these marks

Q: And the tumor weights (MDA-MB-468 xenografts; (R)-9b 36 mg/Kg oral or 24 mg/Kg subcutaneous, end of experiment)?
A: significant reduction in tumor weights

Q: And the xenograft tumor growth (MDA-MB-468 xenografts; palbociclib 80 mg/Kg oral, (R)-9b 36 mg/Kg oral or 24 mg/Kg subcutaneous, five times a week, 3 weeks)?
A: compromised tumors growth

Q: What about the “weights of the mice” value (MDA-MB-468 xenografts; palbociclib 80 mg/Kg, (R)-9b 36 mg/Kg oral or 24 mg/Kg subcutaneous) of the same molecule?
A: did not exhibit significant loss of weight

Q: What about the “histology (H&E) of heart, spleen, kidneys and livers” value (MDA-MB-468 xenografts; palbociclib 80 mg/Kg, (R)-9b oral and subcutaneous) of the same molecule?
A: did not reveal histological abnormalities
